# System: mTORC1
# Assay: Western blot of pS6 in multiple regions of the rat brain
# Assay type: in vivo
# Details: Example C; NV-5138 160 mg/kg oral; 1 hr post-dose; ad libitum access to food
# Description: Study Design: Ten (10) male rats weighing between 175 and 200 g were randomized into 2 study groups (n=5/group), following a 5-day acclimation period. Group 1 received a single administration of Veh by oral gavage and group 2 received a single administration of NV-5138 (160 mg/kg prepared in Veh) by oral gavage. One hour following administration, rats were sacrificed by conscious decapitation, plasma was collected for analysis of NV-5138 exposure in addition to the isolation of the PFC, hippocampus, striatum, neocortex and cerebellum by microdissection. Total protein extracts were prepared from the harvested tissues and submitted to WB analysis followed by quantitative analysis of selected mTORC1 substrates.
# Formulation of NV-5138 (160 mg/ml): NV-5138 (Navitor, Lot #09) was prepared by dissolving in Veh at a concentration of 160 mg/mL. […]
# Western Blot Analysis: Synaptosomes preparations (15 μg of total protein) were loaded and separated on NuPAGE 4-12% Bis-Tris gels and transferred to PVDF membrane (Immobilon-FL PVDF membrane, Millipore) using CAPS Buffer (10 mM 3-(Cyclohexylamino)-1-propanesulfonic acid, 12.5% Ethanol pH=10). […] Signals were quantified using the Odyssey Infrared Imaging System (LI-COR Bioscience). The resulting densitometric readings were used to generate a ratio of phopho-protein to α-tubulin. […]
smiles,measurement,value
CC(C)(C[C@H](N)C(=O)O)C(F)F [NV-5138],"activation of mTORC1 (pS6) in PFC, striatum, hippocampus, neocortex and cerebellum","significant activation of mTORC1 in most, but not all of the major regions of the brain"

# Reference: patent publication US20210228523A1, “MODULATORS OF SESTRIN-GATOR2 INTERACTION AND USES THEREOF” (Navitor Pharmaceuticals, Inc., priority 2017, published 2021)
